Laboratory results as given in patent US20090203609A1, “Use of IL-1 inhibitors for treating IL-1 mediated diseases” (AMGEN INC., priority 1996, published 2009).

Experiments:
adjuvant arthritic rats [1] = test: Adjuvant arthritis model, Example 1 (rhuIL-1ra IV infusion, oral methotrexate); format: in vivo, Male Lewis rats; conditions: rhuIL-1ra 5 mg/kg/hr continuous IV infusion from day 8; methotrexate 0.06 mg/kg oral days 0-14; termination day 15
Description: Male Lewis rats (Charles River, Portage, Mich.) (5 per group) weighing at least 200 g were cannulated with jugular catheters and allowed to recover for several days. They were then placed in infusion cages and acclimated for a week prior to initiating adjuvant injections. On day 0, all treated rats were injected with 100 μl of Freunds Complete Adjuvant (Sigma Chemical Co., St. […] On day 8, treatment with E. coli-derived human recombinant IL-1 receptor antagonist (prepared generally in accordance with the teachings of U.S. Pat. […] Body weights were taken on day 0 and every other day from day 8 to termination on day 15. Caliper measurements and clinical scoring were done on day 8 and every other day until termination. At this time the animals' body, paw and spleen weights were determined.

adjuvant arthritic rats [2] = test: Adjuvant arthritis model, Example 2 (rhuIL-1ra IV infusion, oral methotrexate); format: in vivo, Male Lewis rats; conditions: rhuIL-1ra 5 mg/kg/hr continuous IV infusion from day 8; methotrexate 0.06 mg/kg oral days 0-14; termination day 15
Description: (§1) Male Lewis rats (Charles River, Portage, Mich.) (5-7/group) weighing at least 200 g were cannulated with jugular catheters and allowed to recover for several days. They were then placed in infusion cages and acclimated for at least one week prior to initiating adjuvant injections. On day-0, all rats were injected with 100 μl of Freunds Complete Adjuvant (Sigma Chemical Co., St. […] Body weights were taken on day 0 and every other day from day 8 to termination on day 15. Caliper measurements and clinical scoring were done on day 8 and every other day until termination. At this time the animals' body, paw and spleen weights were determined.

adjuvant arthritic rats [3] = test: Adjuvant arthritis model, Example 3 (rhuIL-1ra subcutaneous infusion, methotrexate dose range); format: in vivo, Male Lewis rats; parameters: inhibition of final paw weight: dose or concentration left out as unconfirmed; conditions: rhuIL-1ra alone
Description: as §1, with “250-300” for “200”, “in the subcutis of the dorsal back” for “with jugular catheters”, “4 days” for “one week”

adjuvant arthritic rats [4] = test: Adjuvant arthritis model, first Example 4 (rhuIL-1ra 5 mg/kg/hr infusion, methotrexate dose range); format: in vivo, Male Lewis rats; conditions: rhuIL-1ra alone
Description: as §1, with “250-300” for “200”, “in the subcutis of the dorsal back” for “with jugular catheters”, “4 days” for “one week”

EAE model = test: EAE model, second Example 4 (integrated clinical score, weight gain); format: in vivo, Female Strain 13 guinea pigs

rhuIL-1ra: E. coli-derived human recombinant IL-1 receptor antagonist (SEQ ID NO:2), in citrate buffer formulation
inhibition of arthritis (paw swelling) (adjuvant arthritic rats [1]): 57%
inhibition of body weight change (adjuvant arthritic rats [1]): 25%
inhibition of splenomegaly (spleen weight) (adjuvant arthritic rats [1]): no significant benefit
inhibition of body weight change (adjuvant arthritic rats [2]): no inhibition
inhibition of paw swelling (adjuvant arthritic rats [2]): 22%
inhibition of splenomegaly (adjuvant arthritic rats [2]): 24%
inhibition of bone resorption, histologic evaluation of ankle joints (adjuvant arthritic rats [3]): 53%
inhibition of inflammation, histologic evaluation of ankle joints (adjuvant arthritic rats [3]): 8%
inhibition of swelling, ankle joint diameter over time (area under the curve) (adjuvant arthritic rats [3]; 5 mg/ml/hr sc infusion): 6%
inhibition of final paw weight (adjuvant arthritic rats [3]; continuous subcutaneous infusion, days 8-15): 6%
inhibition of bone resorption, histologic evaluation of ankle joints (adjuvant arthritic rats [4]): 53%
inhibition of inflammation, histologic evaluation of ankle joints (adjuvant arthritic rats [4]): 8%
inhibition of swelling, ankle joint diameter over time (area under the curve) (adjuvant arthritic rats [4]; 5 mg/kg/hr infusion): 6%
inhibition of final paw weight (adjuvant arthritic rats [4]; continuous subcutaneous infusion 5 mg/kg/hr, days 8-15): 6%
attenuation of clinical symptoms/signs (integrated clinical score) (EAE model; rhuIL-1ra 10 mg/kg s.c. 3x a day from day 0, alone or with r-metIFN-con1 0.03 mg/kg s.c.): 49%
attenuation of clinical symptoms/signs (integrated clinical score) (EAE model; rhuIL-1ra 100 mg/kg s.c. 3x a day from day 0, alone or with r-metIFN-con1 0.03 mg/kg s.c.): 53%
